This test has as its system Alternaria solani. The test can be described thus: Mycelial growth test. The following applies: AS; for Percent Fungus Growth Inhibition: 72 hours; for inhibition at 5 ppm / inhibition at 10 ppm / inhibition at 20 ppm / inhibition at 40 ppm: Alternaria solani, 72 h, read-out: Percent Fungus Growth Inhibition. Format: cell-based.

For the compound “3-chloro-5-(bromophenoxy)-4H-1,2,6-thiadiazin-4-one [Compound 33]”, the “Percent Fungus Growth Inhibition” value is, setting by setting: (5 ppm) 100%; (10 ppm) 100%; (20 ppm) 100%; (40 ppm) 100%.
Take “3-chloro-5-[methylaminocarbonyloxy)phenoxyl]-4H-1,2,6-thiadiazin-4-one [Compound 36]”: the “Percent Fungus Growth Inhibition” value by setting is: (5 ppm) 71%; (10 ppm) 90%; (20 ppm) 100%; (40 ppm) 100%.
The term inhibition denotes the change of the read-out against control, counted positive when it falls. As to `O=c1c(Cl)nsnc1Oc1ccccc1` [Compound 2, 3-chloro-5-phenoxy-4H--1,2,6-thiadiazin-4-one], under “5 ppm”, the inhibition at 5 ppm was 75%. The inhibition at 10 ppm (10 ppm) was determined as 100%. Besides, the inhibition at 20 ppm (20 ppm) stood at 100%. Moreover, the inhibition at 40 ppm (40 ppm) was found to be 100%.
Take `Cc1ccc(Oc2nsnc(Cl)c2=O)cc1` [Compound 3, 3-chloro-5-(4-methylphenoxy)-4H--1,2,6-thiadiazin-4-one]: the inhibition at 5 ppm (5 ppm) is 19%. Besides, for the setting “10 ppm”, the inhibition at 10 ppm is 63%. The inhibition at 20 ppm (20 ppm) was 100%. For the same compound, the inhibition at 40 ppm (40 ppm) was determined as 100%.
For `CC(C)(C)c1ccc(Oc2nsnc(Cl)c2=O)cc1` [Compound 4, 3-chloro-5-(4-tert-butylphnoxy)-4H--1,2,6-thiadiazin-4-one], where the note is “5 ppm”, the inhibition at 5 ppm was found to be 13%. In addition, for the setting “10 ppm”, the inhibition at 10 ppm turned out to be 13%. For the same compound, under “20 ppm”, the inhibition at 20 ppm came out at 0%. Also, the inhibition at 40 ppm (40 ppm) amounted to 17%.
On to `COc1ccc(Oc2nsnc(Cl)c2=O)cc1` [Compound 5, 3-chloro-5-(4-methoxyphenoxy)4H--1,2,6-thiadiazin-4-one], for which the inhibition at 5 ppm (5 ppm) was 100%. Further, the inhibition at 10 ppm (10 ppm) worked out at 100%. For the same compound, the inhibition at 20 ppm (20 ppm) turned out to be 100%. Moreover, the inhibition at 40 ppm (40 ppm) was determined as 100%.
With `CCCCOc1ccc(Oc2nsnc(Cl)c2=O)cc1` [Compound 6, 3-chloro-5-(4-n-butoxyphenoxy)-4H--1,2,6-thiadiazin-4-one], under “5 ppm”, the inhibition at 5 ppm was 8%. Also, the inhibition at 10 ppm (10 ppm) amounted to 0%. Further, the inhibition at 20 ppm (20 ppm) stood at 13%. Also, the inhibition at 40 ppm (40 ppm) turned out to be 21%.
Turning to `CCOC(=O)c1ccc(Oc2nsnc(Cl)c2=O)cc1` [Compound 7, 3-chloro-5-(4-ethoxycarbonylphenoxy)-4H--1,2,6-thiadiazin-4-one], the inhibition at 5 ppm (5 ppm) is 54%. Moreover, the inhibition at 10 ppm (10 ppm) stood at 75%. Besides, the inhibition at 20 ppm (20 ppm) turned out to be 75%. Also, the inhibition at 40 ppm (40 ppm) was 92%.
`CC(=O)Nc1ccc(Oc2nsnc(Cl)c2=O)cc1` [Compound 8, 5-(4-acetylaminophenoxy)-3-chloro-4H--1,2,6-thiadiazin-4-one]: where the note is “5 ppm”, the inhibition at 5 ppm was determined as 38%. Also, the inhibition at 10 ppm (10 ppm) came out at 41%. The inhibition at 20 ppm (20 ppm) came out at 69%. The inhibition at 40 ppm (40 ppm) was found to be 86%.
For `O=c1c(Cl)nsnc1Oc1ccc([N+](=O)[O-])cc1` [Compound 9, 3-chloro-5-(4-nitrophenoxy)-4H--1,2,6-thiadiazin-4-one], the inhibition at 5 ppm (5 ppm) came to 31%. Further, where the note is “10 ppm”, the inhibition at 10 ppm was determined as 63%. Moreover, the inhibition at 20 ppm (20 ppm) came out at 100%. Besides, the inhibition at 40 ppm (40 ppm) was 100%.
Regarding `N#Cc1ccc(Oc2nsnc(Cl)c2=O)cc1` [Compound 10, 3-chloro-5-(4-cyanophenoxy)-4H--1,2,6-thiadiazin-4-one], the inhibition at 5 ppm (5 ppm) came out at 54%. Also, the inhibition at 10 ppm (10 ppm) turned out to be 79%. In addition, the inhibition at 20 ppm (20 ppm) came to 92%. Besides, the inhibition at 40 ppm (40 ppm) is 92%.
As to `O=c1c(Cl)nsnc1Oc1ccc(F)cc1` [Compound 11, 3-chloro-5-(4-fluorophenoxy)-4H--1,2,6-thiadiazin-4-one], the inhibition at 5 ppm (5 ppm) worked out at 63%. Also, under “10 ppm”, the inhibition at 10 ppm stood at 83%. Also, for the setting “20 ppm”, the inhibition at 20 ppm came to 100%. Further, under “40 ppm”, the inhibition at 40 ppm stood at 100%.
With `O=c1c(Cl)nsnc1Oc1ccc(Cl)cc1` [Compound 12, 3-chloro-5-(4-chlorophenoxy)-4H--1,2,6-thiadiazin-4-one], the inhibition at 5 ppm (5 ppm) was 31%. Further, the inhibition at 10 ppm (10 ppm) stood at 31%. Further, where the note is “20 ppm”, the inhibition at 20 ppm came out at 63%. Further, the inhibition at 40 ppm (40 ppm) worked out at 100%.
For the compound `O=c1c(Cl)nsnc1Oc1cccc(Cl)c1` [Compound 13, 3-chloro-5-(3-chlorophenoxy)-4H--1,2,6-thiadiazin-4-one], under “5 ppm”, the inhibition at 5 ppm was 45%. Besides, under “10 ppm”, the inhibition at 10 ppm was 59%. For the same compound, the inhibition at 20 ppm (20 ppm) worked out at 86%. For the same compound, for the setting “40 ppm”, the inhibition at 40 ppm was determined as 100%.
On to `O=c1c(Cl)nsnc1Oc1ccccc1Cl` [Compound 14, 3-chloro-5-(2-chlorophenoxy)-4H--1,2,6-thiadiazin-4-one], for which the inhibition at 5 ppm (5 ppm) stood at 86%. For the same compound, the inhibition at 10 ppm (10 ppm) is 79%. Under “20 ppm”, the inhibition at 20 ppm was 100%. The inhibition at 40 ppm (40 ppm) came out at 100%.
Consider `O=c1c(Cl)nsnc1Oc1ccc(Br)cc1` [Compound 15, 3-chloro-5-(4-bromophenoxy)-4H--1,2,6-thiadiazin-4-one], for which, where the note is “5 ppm”, the inhibition at 5 ppm was determined as 54%. Besides, the inhibition at 10 ppm (10 ppm) came out at 66%. Also, the inhibition at 20 ppm (20 ppm) came out at 66%. Also, under “40 ppm”, the inhibition at 40 ppm was determined as 75%.
On to `O=c1c(Cl)nsnc1Oc1ccc(Cl)c(Cl)c1` [Compound 16, 3-chloro-5-(3,4-dichlorophenoxy)-4H--1,2,6-thiadiazin-4-one], for which the inhibition at 5 ppm (5 ppm) was 38%. The inhibition at 10 ppm (10 ppm) was determined as 50%. The inhibition at 20 ppm (20 ppm) was 56%. Besides, the inhibition at 40 ppm (40 ppm) was 50%.
For `O=c1c(Cl)nsnc1Oc1ccc(Cl)cc1Cl` [Compound 17, 3-chloro-5-(2,4-dichlorophenoxy)-4H--1,2,6-thiadiazin-4-one], the inhibition at 5 ppm (5 ppm) came out at 79%. Further, the inhibition at 10 ppm (10 ppm) was 72%. For the same compound, under “20 ppm”, the inhibition at 20 ppm was 93%. Besides, the inhibition at 40 ppm (40 ppm) worked out at 100%.
Regarding `O=c1c(Cl)nsnc1Oc1c(Cl)cccc1Cl` [Compound 18, 3-chloro-5-(2,6-dichlorophenoxy)-4H--1,2,6-thiadiazin-4-one], the inhibition at 5 ppm (5 ppm) is 69%. Moreover, the inhibition at 10 ppm (10 ppm) came to 90%. The inhibition at 20 ppm (20 ppm) amounted to 90%. Also, the inhibition at 40 ppm (40 ppm) came to 84%.
`O=c1c(Cl)nsnc1Oc1cccc(Cl)c1Cl` [Compound 19, 3-chloro-5-(2,3-dichlorophenoxy)-4H--1,2,6-thiadiazin-4-one]: the inhibition at 5 ppm (5 ppm) worked out at 62%. For the same compound, the inhibition at 10 ppm (10 ppm) stood at 62%. Further, the inhibition at 20 ppm (20 ppm) turned out to be 90%. In addition, the inhibition at 40 ppm (40 ppm) amounted to 100%.
Consider `O=c1c(Cl)nsnc1Oc1cc(Cl)cc(Cl)c1` [Compound 20, 3-chloro-5-(3,5-dichlorophenoxy)-4H--1,2,6-thiadiazin-4-one], for which the inhibition at 5 ppm (5 ppm) was 59%. Further, the inhibition at 10 ppm (10 ppm) is 59%. The inhibition at 20 ppm (20 ppm) was determined as 59%. The inhibition at 40 ppm (40 ppm) worked out at 83%.
As to `Cc1cccc(Oc2nsnc(Cl)c2=O)c1` [Compound 21, 3-chloro-5-(3-methylphenoxy)-4H--1,2,6-thiadiazin-4-one], the inhibition at 5 ppm (5 ppm) worked out at 75%. In addition, for the setting “10 ppm”, the inhibition at 10 ppm stood at 63%. Further, the inhibition at 20 ppm (20 ppm) turned out to be 75%. Under “40 ppm”, the inhibition at 40 ppm amounted to 100%.
With `Cc1ccccc1Oc1nsnc(Cl)c1=O` [Compound 22, 3-chloro-5-(2-methylphenoxy)-4H--1,2,6-thiadiazin-4-one], the inhibition at 5 ppm (5 ppm) came to 63%. For the same compound, for the setting “10 ppm”, the inhibition at 10 ppm was found to be 88%. Further, the inhibition at 20 ppm (20 ppm) turned out to be 100%. The inhibition at 40 ppm (40 ppm) turned out to be 100%.
`Cc1ccc(Oc2nsnc(Cl)c2=O)c(C)c1` [Compound 23, 3-chloro-5-(2,4-dimethylphenoxy)-4H--1,2,6-thiadiazin-4-one]: the inhibition at 5 ppm (5 ppm) was found to be 63%. Further, where the note is “10 ppm”, the inhibition at 10 ppm is 81%. In addition, the inhibition at 20 ppm (20 ppm) was found to be 100%. For the same compound, the inhibition at 40 ppm (40 ppm) amounted to 100%.
Regarding `Cc1cccc(C)c1Oc1nsnc(Cl)c1=O` [Compound 24, 3-chloro-5-(2,6-dimethylphenoxy)-4H--1,2,6-thiadiazin-4-one], the inhibition at 5 ppm (5 ppm) worked out at 100%. Besides, under “10 ppm”, the inhibition at 10 ppm was determined as 88%. Further, the inhibition at 20 ppm (20 ppm) is 100%. Further, the inhibition at 40 ppm (40 ppm) is 100%.

(Values after patent US4450269A, “Mono-5-substituted-3-chloro-4H-1,2,6-thiadiazin-4-one antifungal agents” (FMC Corporation, priority 1980, dated 1984).)
